Values joined by “and” are separate entries in the source; they are usually repeats but may differ in a detail not shown here. Equal values may be shown once.
Legend:
[1] = Metabolism and renal excretion of [18F]FACH in piglets (radio-HPLC, graphical analysis)
Protocol: Radio-metabolites were analyzed by analytical and semi-preparative HPLC on a JASCO LC-2000 system (JASCO Labor- und Datentechnik, Gross-Umstadt, Germany), consisting of a PU-2080 Plus pump, AS-2055 Plus auto injector (100 μL sample loop) or a manual injection valve with a 5 mL sample loop, and a UV-2070 Plus detector coupled with a gamma radioactivity HPLC detector (Gabi Star, Raytest Isotopenmessgeräte GmbH, Straubenhardt, Germany). Data analysis was performed with the Galaxie chromatography software (Agilent Technologies, Santa Clara, CA, USA). […] For analytical and semi-preparative radio-HPLC analyses, Reprosil-Pur columns (C18-AQ 250 × 4.6 mm; 5 μm; and C18-AQ 150 × 4.6 mm; 10 μm; Dr. Maisch HPLC GmbH; Ammerbuch-Entringen, Germany) were used. Acetonitrile (ACN) mixed with a 20 mM aqueous solution of ammonium acetate (NH4OAc) was used as eluent.
In corresponding piglet studies (n = 5), plasma was separated from the arterial blood samples drawn during the PET recordings at certain time points.
In piglet studies, similar procedures were implemented for preparing samples from plasma collected at 15, 30, 45 and 60 min p.i., with the exception of collecting the urine sample only at 60 min p.i. Additionally, in order to measure the radio-metabolites in the piglet kidney, the tissue was resected at 60 min p.i. and after washing in PBS, samples of the kidney cortex and medulla were isolated and homogenized in demineralized water (2 mL/g tissue) using a borosilicate glass mortar with ten strokes of a PTFE plunger at 1000 rpm (Potter S, Homogenizer, B. Braun Biotech, Sartorius AG, Göttingen, Germany). Protein precipitation was performed by addition of ice-cold ACN/H2O at a ratio of 4:1 (v/v) of organic solvent to each tissue sample. The samples were vortexed for 3 min, placed on ice for 3 min, and the suspensions were centrifuged at 12,000 rpm at 4 °C for 5 min. For the second extraction, the precipitates were washed with 200 μL of the solvent mixture and subjected to the same procedure. The combined supernatants (total volume between 68 mL) were concentrated at 70 °C under argon flow to a final volume of approximately 2 mL and analyzed by semi-preparative RP radio-HPLC. […] The analyses were performed in gradient mode using 10% ACN/20 mM NH4OAc (aq.) as eluent A and 90% ACN/20 mM NH4OAc (aq.) as eluent B under the following conditions:
To determine the percentage of the radioactivity in the supernatants compared to the total radioactivity aliquots were taken at each step and, as well as the precipitates, quantified by gamma counting.
By interpolation of the measured radio-metabolite fractions from the piglet PET studies, the continuous TACs for [^18F]FACH and its radio-metabolites were calculated. Subsequently, the magnitudes of the whole body rate constant for [^18F]FACH metabolism (k0) and the elimination rate constant for the radio-metabolites (k−1) under control and pre-treated conditions were calculated as described previously [32]. Graphical analysis of the integrals of the plasma time-concentration series of PET tracers and their radio-metabolite(s) follow a linear relationship [32, 47], where the ordinate intercept is equal to the whole body fractional rate constant for the metabolism of the parent, designated k0 (min^−1). The linear regression slope corresponds to the fractional rate constant for the elimination of the radio-metabolite from circulation, designated k−1 (min^−1), which indicates the renal clearance of the radio-metabolite.

SMCT1 = tested on: SMCT1; set-up: method as in PMID 31017677; details: [14C]nicotinate uptake assay; read-out: IC50 towards SMCT1; cited from earlier work
MCT4 = tested on: MCT4; set-up: method as in PMID 31017677; details: L-[14C]lactate uptake, MDA-MB231 cells; read-out: IC50 towards MCT4; cited from earlier work
MCTs = test: Ex vivo biodistribution in mice; set-up: species or system mouse; details: for SUV adipose tissue / SUV adrenal gland / SUV bladder / SUV blood / SUV brain / SUV caecum / SUV femur / SUV gall bladder / SUV heart / SUV kidney / SUV large intestine / SUV liver / SUV lung / SUV ovar / SUV pancreas / SUV plasma / SUV small intestine / SUV spleen / SUV stomach / SUV urine: ex vivo, control
Protocol: Adult mice (28 to 39 g bodyweight) under isoflurane anesthesia were pre-treated by i.v. injection of saline as control (n = 3 for each time point) or 25 mg/kg α-CCA-Na (n = 3 for each time point) ten min before i.v. injection of [^18F]FACH (0.53 ± 0.06 MBq, 0.14 to 0.29 pmol/g bodyweight). The animals were euthanized by anesthesia overdose and cervical dislocation at five, 15 and 30 min after i.v. [^18F]FACH administration, and the radioactivity concentrations in harvested tissues were measured by a gamma counter (PerkinElmer), decay-corrected and normalized to the administered dose and tissue weight, and expressed as SUV in their harvested tissues. The red blood cell to plasma ratio was calculated as described by Bower et al.

plasma protein = test: Plasma protein binding in vitro (ultrafiltration); type: in vitro ADME, piglet; details: pig plasma, 20 min at 37 °C
Protocol: To measure plasma protein binding in vitro, a 1 mL portion of piglet plasma was incubated with 4.9 MBq [^18F]FACH (10 µL) on a shaker (400 rpm) for 20 min at 37 °C. The plasma protein binding was also measured ex vivo in 10 µL portions of mouse plasma from retro-orbital blood samples collected 70 min after intravenous (i.v.) injection of 3.7 MBq [^18F]FACH via a tail vein. The free and bound fractions of [^18F]FACH were separated by centrifugation at room temperature (2000 g for ten minutes, Centrifree® YM-30, Ultrafiltration Device; Merck KGaA, Darmstadt, Germany). Radioactivity was measured in aliquots of ultrafiltrate and in prefiltration plasma samples, using a Wizard 2470 γ-counter (PerkinElmer LAS, Rodgau, Germany), and the free fraction in the plasma (fp) calculated from the concentration ratio.

[2] = Metabolism and renal excretion of [18F]FACH in mice (radio-HPLC)
Protocol: Radio-metabolites were analyzed by analytical and semi-preparative HPLC on a JASCO LC-2000 system (JASCO Labor- und Datentechnik, Gross-Umstadt, Germany), consisting of a PU-2080 Plus pump, AS-2055 Plus auto injector (100 μL sample loop) or a manual injection valve with a 5 mL sample loop, and a UV-2070 Plus detector coupled with a gamma radioactivity HPLC detector (Gabi Star, Raytest Isotopenmessgeräte GmbH, Straubenhardt, Germany). Data analysis was performed with the Galaxie chromatography software (Agilent Technologies, Santa Clara, CA, USA). Monitoring of UV absorption was done at wavelengths of 254 and 400 nm (400 nm was detected as λmax for this class of compounds). For analytical and semi-preparative radio-HPLC analyses, Reprosil-Pur columns (C18-AQ 250 × 4.6 mm; 5 μm; and C18-AQ 150 × 4.6 mm; 10 μm; Dr. Maisch HPLC GmbH; Ammerbuch-Entringen, Germany) were used. Acetonitrile (ACN) mixed with a 20 mM aqueous solution of ammonium acetate (NH4OAc) was used as eluent.
[^18F]FACH (33.8 ± 3.3 MBq in 200 μL isotonic saline) was injected in awake CD-1 mice (n = 4) via a tail vein. At 30 min after radiotracer administration, the mice were anaesthetised with isoflurane, and retro-orbital blood was sampled, followed by cervical dislocation and collection of released urine.
In mouse studies, at 30 min after i.v. injection of the radiotracer [^18F]FACH, the plasma was isolated by centrifugation of a blood sample at 10,000 rpm for 2 min. […]
Protein precipitation of plasma and tissue homogenates was performed by addition of ice-cold ACN/H2O (9:1, v/v) at a ratio of 4:1 (v/v) of the solvent mixture to each tissue sample (n = 2). […] The combined supernatants (total volume between 1 to2 mL) were concentrated at 70 °C under argon flow to a final volume of approximately 100 μL and analyzed by analytical radio-HPLC. […] To determine the percentage of the radioactivity in the supernatants compared to the total radioactivity aliquots were taken at each step and, as well as the precipitates, quantified by gamma counting.

apparent rate constant (k0) for [18F]FACH metabolism ([1]; piglets, control): 0.87 ± 0.34 min⁻¹
parent radiotracer fraction in plasma ([1]; piglets, control, 60 min): 8.8 ± 4.8%
parent radiotracer fraction in plasma ([1]; piglets, control, five min): 42 ± 13%
intact radiotracer in urine ([1]; piglets, urine 60 min p.i.): no intact radiotracer was detectable
parent fraction of [18F]FACH in kidney cortex ([1]; two control piglets, 60 min p.i.): 50.5% and 48.0%
red blood cell to plasma ratio (MCTs; biodistribution studies): < 0.1
SUV adipose tissue (MCTs; 5 min p.i.): 0.12
SUV adrenal gland (MCTs; 5 min p.i.): 0.80
SUV bladder (MCTs; 5 min p.i.): 0.17
SUV blood (MCTs; 5 min p.i.): 1.85 ± 0.29 and 1.85
SUV brain (MCTs; 5 min p.i.): 0.08
SUV caecum (MCTs; 5 min p.i.): 0.18
SUV femur (MCTs; 5 min p.i.): 0.17
SUV gall bladder (MCTs; 5 min p.i.): 4.61
SUV heart (MCTs; 5 min p.i.): 0.74
SUV kidney (MCTs; 5 min p.i.): 7.97
SUV large intestine (MCTs; 5 min p.i.): 0.24
SUV liver (MCTs; 5 min p.i.): 9.65
SUV lung (MCTs; 5 min p.i.): 0.89 ± 0.12 and 0.89
SUV ovar (MCTs; 5 min p.i.): 0.38
SUV pancreas (MCTs; 5 min p.i.): 0.51
SUV plasma (MCTs; 5 min p.i.): 3.77 ± 0.57 and 3.77
SUV small intestine (MCTs; 5 min p.i.): 0.56
SUV spleen (MCTs; 5 min p.i.): 0.37
SUV stomach (MCTs; 5 min p.i.): 0.16
SUV urine (MCTs; 5 min p.i.): 0.82
SUV adipose tissue (MCTs; 15 min p.i.): 0.18
SUV adrenal gland (MCTs; 15 min p.i.): 0.94
SUV bladder (MCTs; 15 min p.i.): 0.35
SUV blood (MCTs; 15 min p.i.): 0.91
SUV brain (MCTs; 15 min p.i.): 0.04
SUV caecum (MCTs; 15 min p.i.): 0.15
SUV femur (MCTs; 15 min p.i.): 0.12
SUV gall bladder (MCTs; 15 min p.i.): 5.36
SUV heart (MCTs; 15 min p.i.): 0.53
SUV kidney (MCTs; 15 min p.i.): 12.81
SUV large intestine (MCTs; 15 min p.i.): 0.19
SUV liver (MCTs; 15 min p.i.): 10.65
SUV lung (MCTs; 15 min p.i.): 0.59
SUV ovar (MCTs; 15 min p.i.): 0.33
SUV pancreas (MCTs; 15 min p.i.): 0.44
SUV plasma (MCTs; 15 min p.i.): 1.76
SUV small intestine (MCTs; 15 min p.i.): 0.66
SUV spleen (MCTs; 15 min p.i.): 0.21
SUV stomach (MCTs; 15 min p.i.): 0.13
SUV urine (MCTs; 15 min p.i.): 4.32
SUV adipose tissue (MCTs; 30 min p.i.): 0.15
SUV adrenal gland (MCTs; 30 min p.i.): 0.51
SUV bladder (MCTs; 30 min p.i.): 0.31
SUV blood (MCTs; 30 min p.i.): 0.82 ± 0.05 and 0.82
SUV brain (MCTs; 30 min p.i.): 0.04
SUV caecum (MCTs; 30 min p.i.): 0.19
SUV femur (MCTs; 30 min p.i.): 0.15
SUV gall bladder (MCTs; 30 min p.i.): 10.96
SUV heart (MCTs; 30 min p.i.): 0.58
SUV kidney (MCTs; 30 min p.i.): 15.97 ± 1.07 and 15.97
SUV large intestine (MCTs; 30 min p.i.): 0.26
SUV liver (MCTs; 30 min p.i.): 8.48
SUV lung (MCTs; 30 min p.i.): 0.52 ± 0.02 and 0.52
SUV ovar (MCTs; 30 min p.i.): 0.32
SUV pancreas (MCTs; 30 min p.i.): 0.38
SUV plasma (MCTs; 30 min p.i.): 1.69 ± 0.17 and 1.69
SUV small intestine (MCTs; 30 min p.i.): 1.11
SUV spleen (MCTs; 30 min p.i.): 0.22
SUV stomach (MCTs; 30 min p.i.): 0.20
SUV urine (MCTs; 30 min p.i.): 4.57
free plasma fraction (fp) (plasma protein): 0.03
radioactivity in bladder/urine (renal excretion) ([2]; mice, 60 min p.i., control): 0.51 ± 0.39 %ID
intact [18F]FACH in plasma ([2]; mouse plasma, 30 min p.i.): More than 99%
[18F]FACH (parent) in urine ([2]; mouse urine): < 5%
Structure (SMILES): CCCN(CCC[18F])c1ccc(/C=C(\C#N)C(=O)O)c(OC)c1 [[^18F]FACH, (E)-2-cyano-3-{4-[(3-[^18F]fluoropropyl)(propyl)amino]-2-methoxyphenyl}acrylic acid]
IC50 (SMCT1): 78 µM
IC50 (MCT4): 0.0065 µM

— paper PMC7915902, “Preclinical Evaluation of [^18F]FACH in Healthy Mice and Piglets: An ^18F-Labeled Ligand for Imaging of Monocarboxylate Transporters with PET” (International Journal of Molecular Sciences, 2021)
